The MIC is the smallest concentration in the dilution series that meets the test's criterion for growth inhibition. The IC50 is the concentration that inhibits the measured activity by half. The inhibition is how much of the control response was suppressed. Lower therefore signals a weak effect.

These results are taken from ChEMBL document CHEMBL3400147, “New septanoside and 20-hydroxyecdysone septanoside derivative from Atriplex portulacoides roots with preliminary biological activities” (Bioorg Med Chem Lett, 2015).

For one data set, the system named is Escherichia coli. The data set can be described thus: Antimicrobial activity against Escherichia coli ATCC 25922 incubated for 24 hrs by microtiter plate dilution method. It counts as functional.
Data set [1] deals with T1, Cholinesterase (Homo sapiens, UniProt P06276). Put plainly: Inhibition of BchE in human plasma incubated for 30 mins using butyrylthiocholine substrate at 37 degC by DTNB dye based spectrophotometry.
T1 sequence (P06276 whole entry): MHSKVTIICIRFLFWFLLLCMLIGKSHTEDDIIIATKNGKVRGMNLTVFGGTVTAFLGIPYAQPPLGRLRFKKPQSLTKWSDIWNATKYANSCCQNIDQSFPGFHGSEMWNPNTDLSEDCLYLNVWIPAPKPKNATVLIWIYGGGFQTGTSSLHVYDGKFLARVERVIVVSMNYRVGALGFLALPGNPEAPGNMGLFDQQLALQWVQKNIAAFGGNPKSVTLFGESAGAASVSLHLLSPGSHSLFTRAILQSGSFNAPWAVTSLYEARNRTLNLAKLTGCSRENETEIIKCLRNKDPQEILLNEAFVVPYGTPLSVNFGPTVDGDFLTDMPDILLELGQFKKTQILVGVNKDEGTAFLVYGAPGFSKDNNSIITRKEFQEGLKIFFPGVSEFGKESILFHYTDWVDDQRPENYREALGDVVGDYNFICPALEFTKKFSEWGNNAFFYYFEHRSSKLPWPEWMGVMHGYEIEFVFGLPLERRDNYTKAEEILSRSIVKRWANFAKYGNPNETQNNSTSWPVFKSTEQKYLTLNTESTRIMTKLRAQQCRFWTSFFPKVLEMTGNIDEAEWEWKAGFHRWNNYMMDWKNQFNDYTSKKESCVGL
The subject of the next data set is Staphylococcus aureus. The data set can be described thus: Antimicrobial activity against Staphylococcus aureus ATCC 25923 incubated for 24 hrs by microtiter plate dilution method. It is filed as functional.
Data set [2] is described as follows: Antioxidant activity assessed as ferric-reducing antioxidant power after 20 mins at 50 degC by UV spectrophotometry. It is filed as physicochemical.
A further data set concerns Enterococcus faecalis. Put plainly: Antimicrobial activity against Enterococcus faecalis ATCC 29212 incubated for 24 hrs by microtiter plate dilution method. It is filed as functional.
The next data set concerns Pseudomonas aeruginosa. Put plainly: Antimicrobial activity against Pseudomonas aeruginosa ATCC 27853 incubated for 24 hrs by microtiter plate dilution method. It counts as functional.
Data set [3] can be described thus: Antioxidant activity assessed as DPPH radical scavenging activity incubated for 30 mins by UV absorption spectrometry. It is filed as physicochemical. For orientation: The DPPH test is a chemical assay of radical scavenging.
For data set [4], the target named is T1, Cholinesterase. Put plainly: Inhibition of BchE in human plasma at 1 mg/ml incubated for 30 mins using butyrylthiocholine substrate at 37 degC by DTNB dye based spectrophotometry.
A short description of data set [5]: Antioxidant activity assessed as catalase activity by measuring hydrogen peroxide disappearance per mg protein measured for 1 min at 25 degC. It is filed as physicochemical.
Data set [6] in a line: Antioxidant activity assessed as ABTS radical scavenging activity incubated for 6 mins. It counts as physicochemical.

Each structure is given as a SMILES string. ≈ marks a conversion by molar mass, not a printed value. Calls of active or inactive are those of the source.

In the case of `CO[C@]1(O[C@@H](CCC(C)(C)O)[C@](C)(O)[C@H]2CC[C@@]3(O)C4=CC(=O)[C@@H]5C[C@@H](O)[C@@H](O)C[C@]5(C)[C@H]4CC[C@]23C)COC[C@@H](O)[C@@H](O)[C@H]1O`, the minimum inhibitory concentration (MIC) against Escherichia coli (ATCC 25922, 24 h) is 62 µg/mL (≈ 94.4 µM); against Staphylococcus aureus (ATCC 25923, 24 h) it was 125 µg/mL (≈ 190 µM); in the data set on Enterococcus faecalis (ATCC 29212, 24 h) it was 125 µg/mL (≈ 190 µM); against Pseudomonas aeruginosa (ATCC 27853, 24 h), 125 µg/mL (≈ 190 µM). Further, the IC50 at Cholinesterase [1] (read-out: IC50 (converted)) was 837 µM; in data set [2], 288.36 µg/mL (≈ 439 µM); in [3] it was 180.26 µg/mL (≈ 274 µM); in data set [6], 111.24 µg/mL (≈ 169 µM). The inhibition on Cholinesterase [4] was determined as 68.3%. Moreover, the Activity in data set [5] came to 159.62 µmol/min.

For `Cc1c(C)c2c(c(C)c1O)CCC(C)(C(=O)O)O2` (configuration not stated) [TROLOX], the results for the IC50 in [2], in [3] and in [6] were 47.32 µg/mL (≈ 189 µM), 14.56 µg/mL (≈ 58.2 µM) and 2.02 µg/mL (≈ 8.07 µM), respectively.

Regarding `CC(C)(O)CC[C@@H](O)[C@](C)(O)[C@H]1CC[C@@]2(O)C3=CC(=O)[C@@H]4C[C@@H](O)[C@@H](O)C[C@]4(C)[C@H]3CC[C@]12C` [20-HYDROXYECDYSONE], the MIC in the data set with Escherichia coli (ATCC 25922, 24 h) stood at 125 µg/mL (≈ 260 µM); in the data set on Staphylococcus aureus (ATCC 25923, 24 h), 125 µg/mL (≈ 260 µM); against Enterococcus faecalis (ATCC 29212, 24 h), 125 µg/mL (≈ 260 µM); with Pseudomonas aeruginosa (ATCC 27853, 24 h) it was 62 µg/mL (≈ 129 µM). Further, the IC50 is 1050 µM on Cholinesterase [1] (read-out: IC50 (converted)), 262.45 µg/mL (≈ 546 µM) in data set [2], 155.82 µg/mL (≈ 324 µM) in [3] and 98.74 µg/mL (≈ 205 µM) in data set [6]. The inhibition against Cholinesterase [4] stood at 71.2%. Moreover, the Activity in data set [5] was determined as 112.35 µmol/min.

Turning to `CN[C@H](CC(C)C)C(=O)N[C@H]1C(=O)N[C@@H](CC(N)=O)C(=O)N[C@H]2C(=O)N[C@H]3C(=O)N[C@H](C(=O)N[C@H](C(=O)O)c4cc(O)cc(O)c4-c4cc3ccc4O)[C@H](O)c3ccc(c(Cl)c3)Oc3cc2cc(c3O[C@@H]2O[C@H](CO)[C@@H](O)[C@H](O)[C@H]2O[C@H]2C[C@](C)(N)[C@H](O)[C@H](C)O2)Oc2ccc(cc2Cl)[C@H]1O` [VANCOMYCIN], the minimal inhibitory concentration (MIC) is 1 µg/mL (≈ 0.69 µM) in the data set with Escherichia coli (ATCC 25922, 24 h); 3 µg/mL (≈ 2.07 µM) against Staphylococcus aureus (ATCC 25923, 24 h); 62 µg/mL (≈ 42.8 µM) against Enterococcus faecalis (ATCC 29212, 24 h); 1 µg/mL (≈ 0.69 µM) with Pseudomonas aeruginosa (ATCC 27853, 24 h).

Regarding `O=C1O[C@H]([C@@H](O)CO)C(O)=C1O` [ASCORBIC ACID], in data set [5], the Activity was 757.575 µmol/min.

`CCCCOC1(O)COC[C@@H](O)[C@@H](O)[C@H]1O` (some centres not stated): the MIC entry in the data set with Escherichia coli, with Staphylococcus aureus, in the data set on Enterococcus faecalis and in the data set with Pseudomonas aeruginosa was “inactive” in each case. In addition, the IC50 entry (on Cholinesterase [1]; in data set [2]; in [3]; in data set [6]) was “Not Active” in each case. For the same compound, the Activity entry in [5] is “Not Active”.
